For this assay, the system named is Helicobacter pylori. Nature of the assay: activity against Helicobacter pylori (method of Iwahi et al., Columbia agar, growth period of 4 days). In kind it is cell-based. Particulars: Columbia agar (Oxoid); for MIC50: 96 h, read-out: Approximate MIC50.

Structures are written as SMILES. In brackets after ≈: the same amount, converted by molar mass.

A word on the MIC50: it is an inhibitory concentration at the 50% level, which refers to growth in some studies and to a panel of isolates in others.

For the compound `Cc1c(SCc2ccco2)ccnc1CSc1nc2cccnc2[nH]1` [Compound 1, 2-{[[4-(2-Furylmethylthio)-3-methyl-2-pyridinyl]methyl]thio}-1H-imidazo-[2,3-b]-pyridine], the MIC50 is approximately 0.1 µg/mL (≈ 0.271 µM).
The same measure, in the same setting: with `CC(=O)n1c(SCc2nccc(SCc3ccco3)c2C)nc2ccccc21` [Compound 7, 1-Acetyl-2-{[[4-(2-furylmethylthio)-3-methyl-2-pyridinyl]methyl]thio}benzimidazole] the figure was approximately 0.5 µg/mL (≈ 1.22 µM); with `C=CC(=O)n1c(SCc2nccc(SCc3ccco3)c2C)nc2ccccc21` [Compound 8, 1-Acryloyl-2-{[[4-(2-furylmethylthio)-3-methyl-2-pyridinyl]methyl]thio}benzimidazole], approximately 0.1 µg/mL (≈ 0.237 µM).
Consider `CCCC(=O)n1c(SCc2nccc(SCc3ccco3)c2C)nc2ccccc21` [Compound 9, 1-n-Butyroyl-2-{[[4-(2-furylmethylthio)-3-methyl-2-pyridinyl]methyl]thio}benzimidazole], for which the “Approximate MIC50” value is approximately 0.1 µg/mL.
On to `Cc1c(SCc2ccco2)ccnc1CSc1nc2ccccc2n1S(C)(=O)=O` [Compound 10, 2-{[[4-(2-Furylmethylthio)-3-methyl-2-pyridinyl]methyl]thio}-1-methylsulfonyl-benzimidazole], for which the MIC50 was approximately 0.5 µg/mL (≈ 1.12 µM).

(Values after patent US6107312A, “Thiopyridines for use in the control of helicobacter bacteria” (BYK Gulden Lomberg Chemische Fabrik GmbH, priority 1994, dated 2000).)
